Laboratory results from patent publication EP4631504A1, “COMPOSITION FOR PREVENTION OR TREATMENT OF FABRY'S DISEASE” (Korea Advanced Institute of Science and Technology, priority 2022, dated 2024).
“Also recorded” adds a separate entry of the source. Structures can show the parent of a compound that is named as a salt.

Tests used:
[1] = tested on: Fabry disease vascular endothelial cells; assay: Tube formation experiment with ROCK inhibitors; assay type: cell-based, human; details: 5 µM
Procedure: [Table 1] ROCK inhibitors used in the first experiment
Second experiment: To confirm whether decreased tube formation in vascular endothelial cells derived from Fabry disease-induced pluripotent stem cells was rescued by treatment with 7 types of ROCK inhibitors (netarsudil, ripasudil, sovesudil, AT13148, AR13503, VX-210, and […]), a tube formation experiment was conducted (Table 2). [Table 2] Types of ROCK inhibitors used in the second experiment
Matrigel was applied to a 96-well plate which was then stored in a 5% CO2 incubator a 37°C for one day. The next day, each ROCK inhibitor was added to each well at various concentrations (5 µM, 1 µM, 0.5 µM, 0.1 µM, 0.05 µM, and 0.01 µM) together with […] VEGF in EGM-2 media.
10,000 vascular endothelial cells per well were applied onto the solidified Matrigel, and after one day, each well was photographed under a microscope. Then, the total tube length was analyzed using Image J to compare the increase and decrease in tube formation.

Rock1 = Rock1 (Homo sapiens, UniProt Q13464); details: cited from earlier work
Rock1, sequence (Q13464 whole entry, species assumed): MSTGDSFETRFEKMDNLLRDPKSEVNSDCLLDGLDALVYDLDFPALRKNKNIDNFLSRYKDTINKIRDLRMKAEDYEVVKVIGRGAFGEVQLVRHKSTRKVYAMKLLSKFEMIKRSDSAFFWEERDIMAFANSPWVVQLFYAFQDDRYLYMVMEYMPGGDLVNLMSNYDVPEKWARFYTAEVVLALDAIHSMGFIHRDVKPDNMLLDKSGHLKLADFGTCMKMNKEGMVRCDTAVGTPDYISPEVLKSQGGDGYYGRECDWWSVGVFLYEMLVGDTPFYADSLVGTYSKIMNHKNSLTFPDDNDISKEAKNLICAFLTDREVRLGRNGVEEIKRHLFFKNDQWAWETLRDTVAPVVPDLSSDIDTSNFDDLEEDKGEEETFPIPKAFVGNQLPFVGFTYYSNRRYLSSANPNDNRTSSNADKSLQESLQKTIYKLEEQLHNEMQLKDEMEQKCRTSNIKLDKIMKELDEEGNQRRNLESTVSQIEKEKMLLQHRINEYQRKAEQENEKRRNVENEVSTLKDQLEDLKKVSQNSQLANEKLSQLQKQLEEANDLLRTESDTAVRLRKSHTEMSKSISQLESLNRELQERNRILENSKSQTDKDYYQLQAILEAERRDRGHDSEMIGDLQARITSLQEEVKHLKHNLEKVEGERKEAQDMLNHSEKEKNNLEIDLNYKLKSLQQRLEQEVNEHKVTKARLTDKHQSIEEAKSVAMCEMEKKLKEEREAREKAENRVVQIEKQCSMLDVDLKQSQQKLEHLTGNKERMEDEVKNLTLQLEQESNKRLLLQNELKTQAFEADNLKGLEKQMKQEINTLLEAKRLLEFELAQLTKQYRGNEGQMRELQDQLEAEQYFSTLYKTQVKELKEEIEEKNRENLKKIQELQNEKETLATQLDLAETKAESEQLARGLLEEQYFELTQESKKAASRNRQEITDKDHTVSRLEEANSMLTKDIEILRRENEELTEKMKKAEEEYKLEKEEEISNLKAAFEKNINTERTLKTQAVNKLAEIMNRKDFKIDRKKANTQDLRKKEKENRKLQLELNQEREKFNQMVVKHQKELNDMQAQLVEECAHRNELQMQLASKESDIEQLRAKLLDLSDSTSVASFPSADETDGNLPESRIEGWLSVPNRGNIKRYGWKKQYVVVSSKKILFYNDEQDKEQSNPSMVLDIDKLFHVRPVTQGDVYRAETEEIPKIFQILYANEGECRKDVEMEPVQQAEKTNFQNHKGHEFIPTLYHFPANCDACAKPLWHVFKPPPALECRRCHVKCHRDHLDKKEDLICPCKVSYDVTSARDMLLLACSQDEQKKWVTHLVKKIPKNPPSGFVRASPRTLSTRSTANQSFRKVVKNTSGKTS

Rock2 = Rock2 (Homo sapiens, UniProt O75116); details: cited from earlier work
Rock2, sequence (O75116 whole entry, species assumed): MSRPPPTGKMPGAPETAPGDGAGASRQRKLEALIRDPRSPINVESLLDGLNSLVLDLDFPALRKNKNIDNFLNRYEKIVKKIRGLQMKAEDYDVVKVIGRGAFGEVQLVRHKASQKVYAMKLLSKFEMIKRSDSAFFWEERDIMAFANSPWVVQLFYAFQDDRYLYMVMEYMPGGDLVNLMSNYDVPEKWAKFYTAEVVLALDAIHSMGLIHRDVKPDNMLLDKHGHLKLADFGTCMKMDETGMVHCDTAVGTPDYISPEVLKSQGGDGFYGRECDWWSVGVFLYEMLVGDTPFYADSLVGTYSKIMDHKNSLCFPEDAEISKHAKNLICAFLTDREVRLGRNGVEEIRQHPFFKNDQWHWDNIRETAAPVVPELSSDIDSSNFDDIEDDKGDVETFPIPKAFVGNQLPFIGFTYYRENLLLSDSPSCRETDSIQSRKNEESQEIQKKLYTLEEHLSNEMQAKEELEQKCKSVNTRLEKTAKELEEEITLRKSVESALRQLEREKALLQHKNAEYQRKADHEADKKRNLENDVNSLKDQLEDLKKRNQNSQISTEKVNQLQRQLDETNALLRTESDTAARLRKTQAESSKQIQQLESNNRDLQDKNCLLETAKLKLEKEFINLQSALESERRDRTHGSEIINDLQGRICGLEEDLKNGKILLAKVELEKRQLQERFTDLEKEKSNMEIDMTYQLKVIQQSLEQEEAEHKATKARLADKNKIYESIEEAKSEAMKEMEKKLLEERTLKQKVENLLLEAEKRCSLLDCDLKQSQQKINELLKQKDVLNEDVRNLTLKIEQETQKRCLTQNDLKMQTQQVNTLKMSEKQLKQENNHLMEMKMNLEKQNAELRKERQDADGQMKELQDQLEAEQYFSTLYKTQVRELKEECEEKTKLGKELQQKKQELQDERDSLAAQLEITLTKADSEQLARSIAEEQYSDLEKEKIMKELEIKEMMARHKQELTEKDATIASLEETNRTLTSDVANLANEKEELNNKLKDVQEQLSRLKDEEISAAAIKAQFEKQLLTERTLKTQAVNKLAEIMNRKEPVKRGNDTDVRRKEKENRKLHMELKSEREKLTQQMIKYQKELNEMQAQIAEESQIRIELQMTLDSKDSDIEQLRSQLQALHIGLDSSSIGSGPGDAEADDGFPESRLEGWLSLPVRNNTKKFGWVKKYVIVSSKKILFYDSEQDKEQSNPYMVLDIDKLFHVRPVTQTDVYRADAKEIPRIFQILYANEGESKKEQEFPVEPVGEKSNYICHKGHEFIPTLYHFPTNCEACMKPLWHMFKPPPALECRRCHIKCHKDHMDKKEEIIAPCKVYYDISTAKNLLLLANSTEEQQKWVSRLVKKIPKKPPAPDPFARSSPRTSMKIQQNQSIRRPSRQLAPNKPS

FD-VECs [2] = assay: Tube-like structure formation assay of FD-VECs; assay type: cell-based, human; details: for tube formation ability: 0.5, 1, and 5 µM, versus DMSO control; for optimal concentration: based on tube formation of FD-VECs; for tube formation ability of VECs derived from FD-iPSC lines with distinct GLA mutations: fasudil at 5 µM
Procedure: FD-iPSC lines that were generated from fibroblasts of three FD patients with a GLA variant were used. A wild-type (WT) iPSC line derived from foreskin fibroblasts and a FD1 isogenic iPSC line were used as controls. Human iPSCs (hiPSCs) were maintained in mTeSR1 medium ([…] Technologies, Vancouver, Canada) on culture plates precoated with Corning Matrigel® hESC-Qualified Matrix. The cells were maintained at 37°C in a 5% CO2 incubator. After 7 days of culture, hiPSC colonies were split at a 1:50 ratio using accutase solution (eBioscience, San Diego, CA, USA) and incubated under the same culture conditions for expansion.
Human iPSCs were differentiated into VECs as described previously, with further optimization. Briefly, hiPSCs were transferred to dishes coated with Matrigel® (BD Biosciences, Franklin Lakes, NJ, USA) and cultured for 2 days in mTESR1 medium ([…] Technologies) at 37°C and 5% CO2. Subsequently, the cells were cultured for a further 2 days in VEC medium (RPMI (HyClone, Logan, MI, USA), 1% B27 (Invitrogen, Carlsbad, CA, USA), and penicillin/streptomycin (Invitrogen)) supplemented with 50 ng/mL Activin A (PeproTech, Rocky Hill, NJ, USA) and 20 ng/mL BMP4 (PeproTech), and 3 µM CHIR990921 (Sigma, St. Louis, MO) at 37°C and 5% CO2. Next, the cells were cultured for 3 days in VEC medium containing 50 ng/mL VEGF-A (PeproTech) and 50 ng/mL bFGF, at 37°C and 5% CO2. To differentiate the vascular progenitors into VECs, CD31^+ cells were sorted from the differentiated cells by MACS using CD31^+ Dynabeads (Thermo Fisher Scientific, Waltham, MA, USA). The CD31^+ cells were transferred to gelatin-coated plates and incubated for 3 days in EGM-2 medium (Lonza, Basel, Switzerland) supplemented with 100 ng/mL VEGF-A and 50 ng/mL bFGF, at 37°C and 5% CO2. The culture medium was changed daily. Finally, the vascular progenitors were cultured in EGM-2 medium without growth factors for 4 days with daily medium change.
To screen for clinical compounds that could rescue FD-VEC dysfunction, VECs were seeded onto gelatin-coated 96-well plates (SPL Life Sciences, Pocheon, Korea) at a density of 3 × 10^3 cells/cm^2 and maintained in EGM-2 medium without growth factors for 24 hours. […] Subsequently, it was examined whether FD-VECs treated with each selected compound could form tube-like structures on Matrigel®-coated plates. The tube-like structure forming assay was repeated at least three times using different concentrations of each selected compound (0.5, 1, and 5 µM).
FD-VECs were dissociated after treatment with Accutase (eBioscience) at 37°C for 5 min. Dissociated cells (1 × 10^4) were transferred to Matrigel® matrix (BD Biosciences) in EGM-2 medium supplemented with 100 ng/mL VEGF-A, and then incubated at 37°C and 5% CO2 for 24 hours. Images of the vascular tube-like structures were taken using an inverted microscope (Olympus, Tokyo, Japan). Total tube lengths were measured using ImageJ software, which was freely provided by the […], and its Angiogenesis Analyzer plugin (Carpentier, 2012).

[3] = tested on: p-SMAD2, SMAD2, TSP1, KDR, eNOS; assay: Western blot analysis of p-SMAD2, TSP1, KDR and eNOS in FD-VECs; assay type: cell-based, human; details: compared to non-treated FD-VECs
EndMT of FD-VECs = assay: EndMT-associated factors in FD-VECs (Western blot, immunostaining); assay type: cell-based, human; details: for levels of mesenchymal-related markers (COL1A1, ACTA2, SNAI1, and TWIST) / protein level of CD31: Western blot; for fluorescence intensities of EndMT-related factors (ACTA2, SNAI1, COL1A1): immunostaining
Text: Hyperactive SMAD2 signaling induces EndMT in VECs, thereby reducing angiogenic functionality. […] Before drug treatment, the present inventors performed bulk RNA sequencing of FD-VECs and FD(c)-VECs to examine the mechanism underlying the defective vasculopathy of FD-VECs.

FD-VECs [4] = assay: ROS fluorescence intensity in FD-VECs; assay type: cell-based, human
FD-VECs [5] = assay: Extracellular flux analysis of oxygen consumption rate (OCR); assay type: cell-based, human
[6] = tested on: FD mice (Gla^-/-/TSP1^Tg); assay: Echocardiography of FD mice after oral administration; assay type: in vivo; details: 10 or 30 mg/kg/day for 6 months
Text: Therefore, the present inventors hypothesized that Gla^-/- mice expressing human TSP1 (Gla^-/-/TSP1^Tg; hereinafter referred to as FD mice) might be an effective animal model for studying FD-related vasculopathy. […] LVH is known to occur in up to half of males and one-third of females in FD patients (Kampmann C, Linhart A, Baehner F, Palecek T, Wiethoff CM, Miebach E, Whybra C, Gal A, Bultas J, Beck M (2008) Onset and progression of the Anderson-Fabry disease related cardiomyopathy. International Journal of Cardiology 130: 367-73). Thus, the present inventors investigated the cardiac functionality in each mouse group via echocardiography.
To this end, FD-mice (Gla^-/-/TSP1^Tg) were produced by crossing transgenic mice expressing human TSP1 with Gla^-/- mice. The produced mice were then orally administered lomerizine (10 or 30 mg/kg/day) for 6 months (FIG. 18A).

[7] = tested on: FD mice (Gla^-/-/TSP1^Tg); assay: Sweat secretion analysis in FD mice; assay type: in vivo; details: oral, 10 or 30 mg/kg/day for 6 months
[8] = tested on: FD mice (Gla^-/-/TSP1^Tg); assay: Heat tolerance test (paw withdrawal latency) in FD mice; assay type: in vivo; details: oral, 10 or 30 mg/kg/day for 6 months
[9] = tested on: FD mice (Gla^-/-/TSP1^Tg); assay: Immunohistochemistry and Western blot of renal tissues of FD mice; assay type: in vivo; details: oral administration; for protein levels of fibrotic and inflammatory markers in renal tissues: Western blot; for CD31+ACTA2+ cells in renal tissues / expression levels of F4/80 and LCN2 in renal tissues / expression of COL1A1 in renal tissues: immunohistochemistry
[10] = tested on: Fabry disease mice (Gla^-/-); assay: Echocardiography of Gla^-/- mice after co-administration; assay type: in vivo; details: fasudil 30 mg/kg daily oral; enzyme 1 mg/kg i.v. once a week; 6 months
[11] = tested on: Fabry disease mice (Gla^-/-); assay: Sweat secretion of Gla^-/- mice after co-administration; assay type: in vivo; details: fasudil 30 mg/kg daily oral; enzyme 1 mg/kg i.v. once a week; 6 months
[12] = tested on: Fabry disease mice (Gla^-/-); assay: Hot plate test (55°C) of Gla^-/- mice after co-administration; assay type: in vivo; details: hot plate 55°C; fasudil 30 mg/kg daily oral; enzyme 1 mg/kg i.v. once a week; 6 months
Procedure: Many Fabry disease patients suffer from peripheral neuropathic pain, and one way to indirectly assess the pain in laboratory animals is to measure the time it takes for the hind limbs to jump on a hot plate at 55°C.

[13] = tested on: Fabry disease mice (Gla^-/-); assay: Kidney tissue analysis of Gla^-/- mice after co-administration; assay type: in vivo; details: fasudil 30 mg/kg daily oral; enzyme 1 mg/kg i.v. once a week; 6 months

CCCOC(=O)c1cccc(-c2cc(C(=O)Nc3ccncc3F)ccc2CN)c1 [AMA-0076, Sovesudil]
tube formation ability of Fabry disease vascular endothelial cells [1]: increased the tube formation ability | IC50 (Rock1): 3.7 nM | IC50 (Rock2): 23 nM

NC[C@@H](C(=O)Nc1ccc2cnccc2c1)c1ccc(CO)cc1 [AR-13503]
tube formation ability of Fabry disease vascular endothelial cells [1]: increased the tube formation ability | IC50 (Rock2): 4.2 nM

NC[C@@](O)(c1ccc(Cl)cc1)c1ccc(-c2cn[nH]c2)cc1 [AT-13148]
tube formation ability of Fabry disease vascular endothelial cells [1]: increased the tube formation ability | IC50 (Rock1): 6 nM | IC50 (Rock2): 4 nM

NC(=O)c1ccc(-c2nc(-c3ccc4c(c3)OCCO4)c(-c3ccccn3)[nH]2)cc1 [D-4476]
tube formation ability (FD-VECs [2]): relatively higher tube formation ability

CC1=C(C(=O)Nc2cc3cn[nH]c3cc2F)C(c2ccc(C(F)(F)F)cc2)CC(=O)N1 (centres unmarked) [GSK429286A]
tube formation ability of Fabry disease vascular endothelial cells [1]: effective in improving the impaired tube formation ability

C[C@H]1CNCCCN1S(=O)(=O)c1cccc2cncc(F)c12 [Ripasudil hydrochloride hydrate]
tube formation ability of Fabry disease vascular endothelial cells [1]: increased the tube formation ability

NC(=O)c1ccc(-c2nc(-c3ccc4c(c3)OCO4)c(-c3ccccn3)[nH]2)cc1 [SB431542]
tube formation ability of Fabry disease vascular endothelial cells [1]: increased tube formation ability

O=C(Nc1ccncc1)c1cc([N+](=O)[O-])ccc1Cl [T0070907]
tube formation ability (FD-VECs [2]): relatively higher tube formation ability

C[C@@H](N)[C@H]1CC[C@H](C(=O)Nc2ccncc2)CC1 [Y27632]
tube formation ability of Fabry disease vascular endothelial cells [1]: effective in improving the impaired tube formation ability

C[C@@H](N)c1ccc(C(=O)Nc2ccnc3[nH]ccc23)cc1 [Y39983]
tube formation ability of Fabry disease vascular endothelial cells [1]: effective in improving the impaired tube formation ability

CCOC(CN1CCN(CC(C)C(=O)c2ccccc2)CC1)c1ccccc1 (centres unmarked) [eprazinone]
tube formation ability (FD-VECs [2]): relatively higher tube formation ability

O=S(=O)(c1cccc2cnccc12)N1CCCNCC1 [fasudil]
tube length of FD-VECs (FD-VECs [2]; 5 µM, compared to the untreated group): significantly increased | tube formation ability (FD-VECs [2]): relatively higher tube formation ability; also recorded: most effective | optimal concentration (FD-VECs [2]): 5 µM | tube formation ability of VECs derived from FD-iPSC lines with distinct GLA mutations (FD-VECs [2]): enhanced | levels of KDR and eNOS [3]: increased | levels of p-SMAD2 and TSP1 [3]: reduced | levels of mesenchymal-related markers (COL1A1, ACTA2, SNAI1, and TWIST) (EndMT of FD-VECs): reduced | protein level of CD31 (EndMT of FD-VECs): increased | fluorescence intensities of EndMT-related factors (ACTA2, SNAI1, COL1A1) (EndMT of FD-VECs): reduced | level of ROS (FD-VECs [4]): reduced the level of ROS to that seen in WT-VECs and FD(c)-VECs | basal respiration, ATP production, or spare capacity (FD-VECs [5]): did not alter | maximal respiration (FD-VECs [5]): partially reduced | LV mass/BW [6]: significantly reduced | cardiac ejection fraction, fractional shortening, and cardiac output [6]: enhanced | anhidrosis (number of sweat spots) [7]: significantly alleviated | heat insensitivity (paw withdrawal latency) [8]: significantly alleviated | protein levels of fibrotic and inflammatory markers in renal tissues [9]: confirmed by Western blot analysis | CD31+ACTA2+ cells in renal tissues [9]: reduced | expression levels of F4/80 and LCN2 in renal tissues [9]: reduced | expression of COL1A1 in renal tissues [9]: downregulated | cardiac function [10]: improvement in cardiac function | left ventricular hypertrophy [10]: significant reduction | sweating [11]: reduced | latency (time for hind limbs to jump on hot plate) [12]: slight decrease in latency | expression of fibrosis-related marker (COL1A1) and inflammation markers (LCN2 and F4/80) in kidney tissues [13]: reduced

COc1ccc(CN2CCN(C(c3ccc(F)cc3)c3ccc(F)cc3)CC2)c(OC)c1OC [lomerizine]
tube formation ability (FD-VECs [2]): relatively higher tube formation ability | optimal concentration (FD-VECs [2]): 1 µM | tube formation ability of VECs derived from FD-iPSC lines with distinct GLA mutations (FD-VECs [2]): enhanced | total tube length of FD-VECs (FD-VECs [2]; tube formation assay, versus untreated FD-VECs): significantly increased | levels of KDR and eNOS [3]: increased | levels of p-SMAD2 and TSP1 [3]: reduced | levels of mesenchymal-related markers (COL1A1, ACTA2, SNAI1, and TWIST) (EndMT of FD-VECs): reduced | protein level of CD31 (EndMT of FD-VECs): increased | fluorescence intensities of EndMT-related factors (ACTA2, SNAI1, COL1A1) (EndMT of FD-VECs): reduced | level of ROS (FD-VECs [4]): reduced the excess ROS produced in FD-VECs to the same level as that in WT- and FD(c)-VECs | maximal respiration (FD-VECs [5]): slight decrease | LV mass/BW [6]: reduced | cardiac ejection fraction, fractional shortening, and cardiac output [6]: significant improvements | anhidrosis (number of sweat spots) [7]: rescued this phenotype | heat insensitivity (paw withdrawal latency) [8]: rescued this phenotype | protein levels of fibrotic and inflammatory markers in renal tissues [9]: reduced | CD31+ACTA2+ cells in renal tissues [9]: reduced this increase | expression levels of F4/80 and LCN2 in renal tissues [9]: reduced | expression of COL1A1 in renal tissues [9]: downregulated

Cc1c(Cl)cccc1Nc1ccccc1C(=O)O [tolfenamic acid]
tube formation ability (FD-VECs [2]): relatively higher tube formation ability

Netarsudil mesylate
tube formation ability of Fabry disease vascular endothelial cells [1]: increased the tube formation ability
